Experimental data taken from patent publication US6737383B1, “Herbicidal oxadiazolidines” (priority 1999, dated 2004).

Legend:
morningglory = assay: Test B pre/postemergence morningglory; type: in vivo, Ipomoea hederacea; settings: for Morningglory plant response rating: scale of 0 to 10 where 0 is no effect and 10 is complete control
Procedure, shortened: (§1)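 Response is a visual 0-to-10 score relative to untreated plants, where 0 means no effect and 10 means complete control, taken twelve to sixteen days after application. Treatments went onto soil at planting and onto foliage of 1- to 4-leaf plants, using a surfactant-containing non-phytotoxic solvent.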

pigweed = assay: Test B pre/postemergence pigweed; type: in vivo, Amaranthus retroflexus; settings: for Redroot pigweed plant response rating: scale of 0 to 10 where 0 is no effect and 10 is complete control
Procedure, shortened: as §1

soybean = assay: Test B pre/postemergence soybean; type: in vivo, Glycine max; settings: for Soybean plant response rating: scale of 0 to 10 where 0 is no effect and 10 is complete control
Procedure, shortened: as §1

sugar beet = assay: Test B pre/postemergence sugar beet; type: in vivo, Beta vulgaris; settings: for Sugarbeets plant response rating: scale of 0 to 10 where 0 is no effect and 10 is complete control
Procedure, shortened: as §1

wild oat = assay: Test B pre/postemergence wild oat; type: in vivo, Avena fatua; settings: for Wild oats plant response rating: scale of 0 to 10 where 0 is no effect and 10 is complete control
Procedure, shortened: as §1

purple nutsedge = assay: Test B pre/postemergence purple nutsedge; type: in vivo, Cyperus rotundus; settings: for Nutsedge plant response rating: scale of 0 to 10 where 0 is no effect and 10 is complete control
Procedure, shortened: as §1

rice = assay: Test B flood test rice; type: in vivo, Oryza sativa
Procedure, shortened: (§2)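 Flood test on plants grown to the 2-leaf stage; treated plants kept in greenhouse twelve to sixteen days, then visually rated against controls on a 0 (no effect) to 10 (complete control) scale.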

smallflower flatsedge = assay: Test B flood test smallflower flatsedge; type: in vivo, Cyperus difformis
Procedure, shortened: as §2

duck salad = assay: Test B flood test duck salad; type: in vivo, Heteranthera limosa
Procedure, shortened: as §2

[1] = Preemergence, Rate 62 g/ha, scale 0 to 10 (0 no effect, 10 complete control)
[2] = Rate 500 g/ha, Postemergence, scale 0 to 10, 0 no effect, 10 complete control
[3] = Postemergence, Rate 125 g/ha, scale 0 to 10, 0 is no effect, 10 is complete control
[4] = Postemergence, Rate 250 g/ha, scale 0 to 10, 0 is no effect, 10 is complete control
[5] = Rate 62 g/ha, flood test species, Pre-emergence, visual evaluation after twelve to sixteen days
[6] = Rate 125 g/ha, under heading Pre-emergence, flood test species, visual evaluation after twelve to sixteen days
[7] = Rate 250 g/ha, Pre-emergence, flood-test species, scale 0 to 10, 0 is no effect, 10 is complete control
[8] = Rate 500 g/ha, Pre-emergence, flood test species, scale 0 to 10 (0 no effect, 10 complete control)

In the case of `CCOc1nc(C(F)(F)F)c(Cn2c(=O)on(C(=O)N(c3ccccc3)C(C)C)c2=O)s1` [Compound 379], the “Plant response rating, Morningglory” value (morningglory; [1]) is reported as 0, the “Morningglory plant response rating (0 to 10 scale)” value (morningglory; Preemergence, Rate 125 g/ha) is reported as 0 and the “Morningglory plant response rating” value (morningglory; Preemergence, Rate 250 g/ha) is reported as 0. The “Morningglory plant response rating” value (morningglory; Preemergence, Rate 500 g/ha) was 0, the “Morningglory plant response rating” value (morningglory; Rate 62 g/ha, Postemergence) was 5 and the “Plant response rating, Morningglory” value (morningglory; [2]) was 10. For the same molecule, the “Plant response rating, Redroot pigweed” value (pigweed; [3]) was 0, the “Plant response rating, Redroot pigweed” value (pigweed; [4]) was 1 and the “Plant response rating, Redroot pigweed” value (pigweed; [1]) was 0. The “Redroot pigweed plant response rating (0 to 10 scale)” value (pigweed; Preemergence, Rate 125 g/ha) was 0, the “Redroot pigweed plant response rating” value (pigweed; Preemergence, Rate 250 g/ha) was 0 and the “Redroot pigweed plant response rating” value (pigweed; Preemergence, Rate 500 g/ha) was 0. The “Redroot pigweed plant response rating” value (pigweed; Rate 62 g/ha, Postemergence) was 0, the “Plant response rating, Redroot pigweed” value (pigweed; [2]) was 1 and the “Plant response rating, Soybean” value (soybean; [3]) was 1. For the same molecule, the “Plant response rating, Soybean” value (soybean; [4]) was 1, the “Plant response rating, Soybean” value (soybean; [1]) was 0 and the “Soybean plant response rating (0 to 10 scale)” value (soybean; Preemergence, Rate 125 g/ha) was 0. For the same molecule, the “Soybean plant response rating” value (soybean; Preemergence, Rate 250 g/ha) was 0, the “Soybean plant response rating” value (soybean; Preemergence, Rate 500 g/ha) was 0 and the “Soybean plant response rating” value (soybean; Rate 62 g/ha, Postemergence) was 1. The “Plant response rating, Soybean” value (soybean; [2]) was 2, the “Plant response rating, Sugarbeets” value (sugar beet; [3]) was 0 and the “Plant response rating, Sugarbeets” value (sugar beet; [4]) was 0. For the same molecule, the “Plant response rating, Sugarbeets” value (sugar beet; [1]) was 0, the “Sugarbeets plant response rating (0 to 10 scale)” value (sugar beet; Preemergence, Rate 125 g/ha) was 0 and the “Sugarbeets plant response rating” value (sugar beet; Preemergence, Rate 250 g/ha) was 0. For the same molecule, the “Sugarbeets plant response rating” value (sugar beet; Preemergence, Rate 500 g/ha) was 0, the “Sugarbeets plant response rating” value (sugar beet; Rate 62 g/ha, Postemergence) was 0 and the “Plant response rating, Sugarbeets” value (sugar beet; [2]) was 0. The “Plant response rating, Wild oats” value (wild oat; [3]) was 0, the “Plant response rating, Wild oats” value (wild oat; [4]) was 0 and the “Plant response rating, Wild oats” value (wild oat; [1]) was 0. The “Wild oats plant response rating (0 to 10 scale)” value (wild oat; Preemergence, Rate 125 g/ha) was 0, the “Wild oats plant response rating” value (wild oat; Preemergence, Rate 250 g/ha) was 0 and the “Wild oats plant response rating” value (wild oat; Preemergence, Rate 500 g/ha) was 0. The “Wild oats plant response rating” value (wild oat; Rate 62 g/ha, Postemergence) was 0, the “Plant response rating, Wild oats” value (wild oat; [2]) was 0 and the “Plant response rating, Nutsedge” value (purple nutsedge; [3]) was 0. The “Plant response rating, Nutsedge” value (purple nutsedge; [4]) was 0, the “Plant response rating, Nutsedge” value (purple nutsedge; [1]) was 0 and the “Nutsedge plant response rating (0 to 10 scale)” value (purple nutsedge; Preemergence, Rate 125 g/ha) was 0. The “Nutsedge plant response rating” value (purple nutsedge; Preemergence, Rate 250 g/ha) was 0, the “Nutsedge plant response rating” value (purple nutsedge; Preemergence, Rate 500 g/ha) was 0 and the “Nutsedge plant response rating” value (purple nutsedge; Rate 62 g/ha, Postemergence) was 0. For the same molecule, the “Plant response rating, Nutsedge” value (purple nutsedge; [2]) was 0, the “Plant response rating, Rice (0 to 10 scale, 0 is no effect, 10 is complete control)” value (rice; [5]) was 0 and the “Rice plant response rating (0 to 10 scale, 0 is no effect, 10 is complete control)” value (rice; [6]) was 0. For the same molecule, the “Rice plant response rating” value (rice; [7]) was 0, the “Rice plant response rating” value (rice; [8]) was 0 and the “Plant response rating, S. Flatsedge (0 to 10 scale, 0 is no effect, 10 is complete control)” value (smallflower flatsedge; [5]) was 0. The “S. Flatsedge plant response rating (0 to 10 scale, 0 is no effect, 10 is complete control)” value (smallflower flatsedge; [6]) was 0, the “S. Flatsedge plant response rating” value (smallflower flatsedge; [7]) was 0 and the “S. Flatsedge plant response rating” value (smallflower flatsedge; [8]) was 0. The “Plant response rating, Ducksalad (0 to 10 scale, 0 is no effect, 10 is complete control)” value (duck salad; [5]) was 0, the “Ducksalad plant response rating (0 to 10 scale, 0 is no effect, 10 is complete control)” value (duck salad; [6]) was 0 and the “Ducksalad plant response rating” value (duck salad; [7]) was 0. The “Ducksalad plant response rating” value (duck salad; [8]) was 0.
